Experimental data taken from paper PMC11724841 (Communications Biology, 2025).
Each block holds one molecule with its values, some of them ahead of it.

Columns and labels:
iso-3 HiPIP = biological target: T1, iso-3 HiPIP (Halorhodospira halophila, UniProt A1WXH6); assay: cryo-EM structure, […] Å; format: binding; conditions: native complex; functional N-terminal domain
T1 sequence (A1WXH6 26-145): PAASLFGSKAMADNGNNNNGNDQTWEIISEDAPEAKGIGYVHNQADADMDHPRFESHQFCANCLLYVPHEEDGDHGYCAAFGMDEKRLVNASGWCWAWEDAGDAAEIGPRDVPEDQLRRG

[1] = biological target: Hlr. halophila RC (in LH1–RC–HiPIP complex) (Halorhodospira halophila, UniProt A1WXF6+A1WXF7); assay: cryo-EM structure, […] Å; format: binding; conditions: native complex
Chain of Hlr. halophila RC (in LH1–RC–HiPIP complex) (A1WXF7 1-276): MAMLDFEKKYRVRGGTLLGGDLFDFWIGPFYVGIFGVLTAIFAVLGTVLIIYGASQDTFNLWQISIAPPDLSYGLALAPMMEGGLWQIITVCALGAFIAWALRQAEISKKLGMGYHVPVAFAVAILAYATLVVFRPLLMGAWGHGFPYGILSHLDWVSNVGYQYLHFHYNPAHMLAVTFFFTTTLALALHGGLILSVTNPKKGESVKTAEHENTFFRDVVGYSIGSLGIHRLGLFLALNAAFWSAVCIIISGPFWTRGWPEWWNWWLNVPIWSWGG
Chain of Hlr. halophila RC (in LH1–RC–HiPIP complex) (A1WXF6 1-323): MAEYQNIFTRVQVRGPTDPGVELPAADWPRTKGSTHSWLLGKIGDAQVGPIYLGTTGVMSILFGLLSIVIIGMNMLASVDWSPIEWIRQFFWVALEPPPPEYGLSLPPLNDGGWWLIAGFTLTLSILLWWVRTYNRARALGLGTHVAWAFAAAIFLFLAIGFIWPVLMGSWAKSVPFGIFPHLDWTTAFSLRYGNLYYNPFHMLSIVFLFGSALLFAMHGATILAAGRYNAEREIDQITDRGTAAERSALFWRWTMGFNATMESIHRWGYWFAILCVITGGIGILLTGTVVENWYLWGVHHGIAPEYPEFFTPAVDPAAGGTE
Chain of Hlr. halophila RC (in LH1–RC–HiPIP complex) (A1WXI3 1-278 partner): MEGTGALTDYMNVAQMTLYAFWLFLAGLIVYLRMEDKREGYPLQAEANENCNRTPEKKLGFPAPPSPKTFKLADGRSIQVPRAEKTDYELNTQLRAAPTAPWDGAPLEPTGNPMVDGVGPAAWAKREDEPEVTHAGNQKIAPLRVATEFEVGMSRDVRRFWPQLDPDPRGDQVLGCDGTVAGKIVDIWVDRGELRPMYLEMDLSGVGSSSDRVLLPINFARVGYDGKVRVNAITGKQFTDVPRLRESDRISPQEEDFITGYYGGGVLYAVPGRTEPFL
Chain of Hlr. halophila RC (in LH1–RC–HiPIP complex) (A1WXF5 26-362 partner): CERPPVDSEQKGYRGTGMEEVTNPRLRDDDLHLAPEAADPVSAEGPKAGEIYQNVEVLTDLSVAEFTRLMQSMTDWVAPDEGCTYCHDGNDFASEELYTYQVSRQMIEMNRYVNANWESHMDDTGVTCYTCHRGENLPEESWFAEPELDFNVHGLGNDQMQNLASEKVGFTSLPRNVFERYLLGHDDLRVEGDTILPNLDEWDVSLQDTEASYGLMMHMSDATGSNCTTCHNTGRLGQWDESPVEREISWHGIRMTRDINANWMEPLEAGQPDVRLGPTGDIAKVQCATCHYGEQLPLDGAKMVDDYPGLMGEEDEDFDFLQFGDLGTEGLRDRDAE

[2] = biological target: Halorhodospira halophila LH1–RC core complex (Halorhodospira halophila strain BN9622); assay: cryo-EM structure

Molecule: [S]12[Fe]3[S]4[Fe]1[S]1[Fe]2[S]3[Fe]41 [4Fe–4S, 4Fe–4S cluster]
cryo-EM structure, 2.44 Å (iso-3 HiPIP): N-terminal functional portion containing the 4Fe–4S cluster

cryo-EM structure, 2.44 Å ([1]; RC pigment, printed only as BPhe): BPhe, orange sticks
Molecule: CC[C@H]1c2cc3[nH]c4c(c3C)C(=O)[C@H](C(=O)OC)c4c3nc(cc4[nH]c(cc(n2)[C@@H]1C)c(C(C)=O)c4C)[C@@H](C)[C@@H]3CCC(=O)OC/C=C(\C)CCC[C@H](C)CCC[C@H](C)CCCC(C)C [BPhe]

Molecule: CC(C)=CCC/C(C)=C/CC/C(C)=C/CC/C(C)=C/CC/C(C)=C/CC/C(C)=C/CC/C(C)=C/CC/C(C)=C/CC1=C(C)C(=O)c2ccccc2C1=O [MQ-8, menaquinone-8]
cryo-EM structure, 2.44 Å ([1]; QA site): one MQ-8 and one UQ-8 were identified unambiguously at the RC QA and QB sites

Molecule: COC1=C(OC)C(=O)C(C/C=C(\C)CC/C=C(\C)CC/C=C(\C)CC/C=C(\C)CC/C=C(\C)CC/C=C(\C)CC/C=C(\C)CCC=C(C)C)=C(C)C1=O [UQ-8, ubiquinone-8]
cryo-EM structure, 2.44 Å ([1]; QB site): one MQ-8 and one UQ-8 were identified unambiguously at the RC QA and QB sites

Molecule: Halorhodospira halophila iso-3 high-potential iron–sulfur protein (HiPIP) (natural protein)
percent of LH1–RC particles with bound HiPIP [2]: 66.7%
